Laboratory results published in paper PMC12455130, “Multifunctional molecular agent for tau-targeted combinational therapy of Alzheimer’s disease” (The Journal of Biological Chemistry, 2025).

Key:
Type in all cases: physicochemical
[1] = UV-visible titration and Job's plot, coordination to Cu2+; details: for Job's plot isosbestic point, mol fraction of Cu2+: 5 mM total in DMSO; for coordination stoichiometry with Cu2+: Job's method, 5 mM in DMSO
Protocol: The UV–visible spectrum was used to reveal their coordination properties to Cu^2+. […] The increased absorption at 481 nm and 475 nm (Fig. 3, A and B, inset) definitely indicated the complexation of 4GA–Cu^2+ and 2GA–Cu^2+, respectively. The coordination stoichiometry of 4GA and 2GA with Cu^2+ was determined by Job’s plot analysis (Fig. 3, C and D). […] However, their macrocyclic precursors (cyclen and N-methylated cyclen 2ME]) were evaluated to coordinate with Cu^2+ by 1:1 mode (Fig. S9). The different coordination mode with Cu^2+ was supposed to be the synergistic coordination effects of galloyl side arms, in addition to the central azacrown structure.
The chelating studies were performed on Hitachi U-2900 UV–visible spectrophotometer with a 10-mm quartz cell. For titration experiment, the UV absorption of test compound (1 mM in DMSO) was recorded in the presence of CuCl2 (0–6 equivalents of Cu^2+ for 4GA, 0–5 equivalents of Cu^2+ for 2GA, respectively). For Job’s method, a series of solution was prepared in which the total concentration of compound and Cu^2+ was fixed (5 mM in DMSO), but their proportions of ether component varied between 0% and 100%, and the UV spectra were analyzed to determine the ratio of ligand–Cu^2+.
Figure S9. The chemical structure of cyclen derivates (upper), and the determination of the stoichiometry of complex (A) cyclen-Cu^2+, (B) 1ME-Cu^2+, (C) 2ME-Cu^2+, (D) 3ME-Cu^2+, (E) 4ME-Cu^2+ (5 mM) by Job’s method.

[2] = Solubility; details: for solubility in polar organic solvent: DMSO
Source text: (§1) Therefore, in the following experiments, they were first dissolved in DMSO and further diluted in an excess of buffer. […] Logically, 1,4,7,10-tetramethyl-1,4,7,10-tetraazacyclododecane (4ME) and GA (compound structure was shown in Fig. S1) are considered as the precursor of 4GA and 2GA and therefore used as a comparative study to confirm whether the ancillary ligand had any effect on aggregation.

[3] = Stability in Hepes by UV-visible absorption; details: Hepes 50 mM, pH 7.4, 0.2% DMSO; 10 μM, 37 °C; 72 h
Protocol: as §1
Figure S8. The stability of 4GA (A) and 2GA (B) in HEPES (50 mM, pH 7.4, 0.2% DMSO) verified by UV-vis absorption spectroscopy. All sample concentrations were 10 μM and kept at 37℃ in atmosphere.

SMILES: CN1CCN(C(=O)c2cc(O)c(O)c(O)c2)CCN(C)CCN(C(=O)c2cc(O)c(O)c(O)c2)CC1 [2GA, (4,10-dimethyl-1,4,7,10-tetraazacyclododecane-1,7-diyl)bis((3,4,5-trihydroxyphenyl)methanone)]
- Job's plot isosbestic point, mol fraction of Cu2+ [1]: 0.7 mol fraction
- coordination stoichiometry with Cu2+ [1]: can bind with two Cu^2+ ions
- solubility in water [2]: slightly soluble in water
- solubility in polar organic solvent [2]: soluble in polar organic solvent such as dimethyl sulfoxide (DMSO)
- stability in buffer [3]: remain stable at 72 h

SMILES: O=C(c1cc(O)c(O)c(O)c1)N1CCN(C(=O)c2cc(O)c(O)c(O)c2)CCN(C(=O)c2cc(O)c(O)c(O)c2)CCN(C(=O)c2cc(O)c(O)c(O)c2)CC1 [4GA, (1,4,7,10-tetraazacyclododecane-1,4,7,10-tetrayl)tetrakis((3,4,5-trihydroxyphenyl)methanone)]
- Job's plot isosbestic point, mol fraction of Cu2+ [1]: 0.7 mol fraction
- coordination stoichiometry with Cu2+ [1]: can bind with two Cu^2+ ions
- solubility in water [2]: slightly soluble in water
- solubility in polar organic solvent [2]: soluble in polar organic solvent such as dimethyl sulfoxide (DMSO)
- stability in buffer [3]: remain stable at 72 h
